According to EP1762239A1, “Lofexidine for intraspinal administration” (Texcontor Etablissement, priority 2005, dated 2007):
“And” between values parts separate entries of the source, which are not always exact repeats. Identical values can stand only once. Counter-ions that a name gives are not always drawn.

Tests used:
[1] = tested on: rat model of neuropathic pain; experiment: Nerve ligation-induced chronic (neuropathic) pain model, mechanical allodynia by electronic von Frey; type: in vivo, Wistar rats; settings: for Tactile Pressure (g) Post-Treatment Average / Tactile Pressure (g) Δ Treatment Average: group of 5; for Tactile Pressure (g) Post-Treatment / Tactile Pressure (g) Δ Treatment: individual animal; for Inhibition (%): Δ Treatment/Δ Blank x 100%
Experimental: Lofexidine was evaluated for possible analgesic activity in neuropathic pain using a nerve ligation-induced chronic pain model in rats. Lofexidine HCl was administered intrathecally (ITH) at 3.2 and 10 µg/animal and analgesia was measured at 15, 30, 60 and 120 minutes post-dosing using an Electronic Von Frey Aesthesiometer (IITC, USA) with a #12 supertip. A 50 % or greater (≥50%) inhibition relative to blank indicates possible analgesic activity. Lofexidine HCl at doses of 3.2 and 10 µg/animal were administered intrathecally. Sterile Saline (obtained from Sintong Biotech Company, Taiwan) was used as vehicle and dosing volume was 10 µl/animal. Male Wistar rats provided by Biolasco Taiwan (under a Charles River Laboratories Technology Licensee) were used. Space allocation for 6 animals was 45 x 23 x 21 cm. Animals were housed in APEC^R cages and maintained in a controlled temperature (22-23°C) and humidity (60-70%) environment with 12 hours light dark cycles for at least one week in MDS Pharma Services - Taiwan Laboratory prior to use. Free access to standard lab chow for rats (Lab Diet, Rodent Diet, PMI Nutrition International, USA) and tap water was granted. All aspects of this work including housing, experimentation and disposal of animals were performed in general accordance with the Guide for the Care and Use of Laboratory Animals (National Academy Press, Washington, D. C, 1996). Male Wistar rats weighing 160 to 200 g were used. Under pentobarbital (50 mg/kg, 5 ml/kg, i.p.) anesthesia, the sciatic nerve was exposed at mid-thigh level. Three ligatures (4-0 silk suture), about 1 mm apart, were loosely tied around th e nerve. The animals were then housed individually in cages with soft bedding for 7 days before testing for mechanical allodynia. On the test day, rats were placed under inverted plexiglas cages on a wire mesh rack and allowed to acclimatise for 20 to 30 minutes. Allodynia was evaluated by responsiveness to a #12 Supertip® (IITC, USA) applied beneath the mesh floor perpendicular to the central plantar surface of the left hind paw. The tip was gradually applied with sufficient force to cause slight buckling of the filament against the paw. A positive response to the applied tactile pressure, noted by sharp withdrawal of the paw, was recorded automatically by an Electronic Von Frey Aesthesiometer (2290CE Electrovonfrey®, IITC, USA). The endpoint is the withdrawal threshold (gm) to von Frey filament, serving as a measure of analgesic activity. Rats were pre-selected (for presence of allodynia) for experimentation only if the withdrawal threshold 7 days after nerve ligation (pre-treatment) was reduced by 10 grams of force relative to the response of the individual paw before nerve ligation (pre-ligation). Test substance or vehicle was administered intrathecally (3.2 µg and 10 µg/animal) to groups of 5 animals and the level of allodynia was again determined (at 15, 30, 60 and 120 minutes post-treatment). Allodynia is calculated as follows: % Inhibition=Δ Treatment/Δ Blank x 100%; where Δ Treatment is Tactile Pressure [(Post-Treatment) -(Pre-Treatment)] and Δ Blank is Tactile Pressure [(Pre-Ligation) - (Pre-Treatment)]. A 50 percent or greater (≥50%) inhibition relative to blank indicates possible analgesic activity.

[2] = Brief observation of general behavior after intrathecal injection; type: in vivo, Wistar rats; settings: 0.00032 mg/rat and 0.0032 mg/rat (ITH)
Experimental: Evaluation for pain was performed at 24 hours postoperatively between 08:00 and 16:00h. Each animal was monitored at 15, 30, 60 and 120 minutes after intrathecal administration of lofexidine.HCl. The rats were placed under inverted plexiglas cages on a wire mesh rack and a brief observation of general behavior post-injection was made. The rigid tip part of the Electronic Von Frey Aesthesiometer was applied perpendicularly from underneath the mesh floor to the four points around the wound surface of the animal with slow upward force against the paw. A positive response to tactile pressure was recorded if the paw was sharply withdrawn; ambulation was considered an ambiguous response, and in such cases, the stimulus was reapplied. Mean values from 4 points for each rat and from 5 rats in each group were calculated. Percent inhibition due to treatment relative to pre-treatment pain response was calculated according to the formula: Tactile Pressure [(Post-Treatment) - (Pre-Treatment)]/[(Pre-Incision) - (Pre-Treatment)] x 100%. Inhibition by 50% or more (≥50%) is considered significant analgesic effect. Unpaired Student's t test is applied for comparison of the % inhibition values between test substance-and vehicle-treated groups. Significance is considered at P<0.05 level

[3] = 3.2 µg/animal ITH, 120 Minutes, listed as Lofexidine HCI
[4] = 10 µg/animal ITH, 120 Minutes, listed as Lofexidine HCI

CC(Oc1c(Cl)cccc1Cl)C1=NCCN1 (stereo not shown) [Lofexidine HCl]
analgesic activity ([1]; 3.2 µg/animal): low levels of analgesic activity | Tactile Pressure (g) Post-Treatment Average ([1]; 3.2 µg/animal ITH, 15 Minutes): 12.5 g | Tactile Pressure (g) Δ Treatment Average ([1]; 3.2 µg/animal ITH, 15 Minutes, Δ Blank 30.2): 1.3 g | Tactile Pressure (g) Post-Treatment ([1]; 3.2 µg/animal ITH, 15 Minutes): 8.9 g and 5.8 g and 23.3 g and 13.4 g and 10.9 g | Tactile Pressure (g) Δ Treatment ([1]; 3.2 µg/animal ITH, 15 Minutes): -1.8 g and -5.2 g and 8.5 g and 6.3 g and -1.1 g | Inhibition (%) ([1]; 3.2 µg/animal ITH, 15 Minutes): 4% | Tactile Pressure (g) Post-Treatment Average ([1]; 3.2 µg/animal ITH, 30 Minutes): 10.1 g | Tactile Pressure (g) Δ Treatment Average ([1]; 3.2 µg/animal ITH, 30 Minutes, Δ Blank 30.2): -1.1 g | Tactile Pressure (g) Post-Treatment ([1]; 3.2 µg/animal ITH, 30 Minutes): 7.4 g and 14.2 g and 8.5 g and 10.0 g and 10.2 g | Tactile Pressure (g) Δ Treatment ([1]; 3.2 µg/animal ITH, 30 Minutes): -3.8 g and -0.6 g and 1.4 g and -2.0 g and -0.5 g | Inhibition (%) ([1]; 3.2 µg/animal ITH, 30 Minutes): -4% | Tactile Pressure (g) Post-Treatment Average ([1]; 3.2 µg/animal ITH, 60 Minutes): 9.3 g | Tactile Pressure (g) Δ Treatment Average ([1]; 3.2 µg/animal ITH, 60 Minutes, Δ Blank 30.2): -1.8 g | Tactile Pressure (g) Post-Treatment ([1]; 3.2 µg/animal ITH, 60 Minutes): 7.5 g and 12.7 g and 11.3 g and 6.5 g and 8.7 g | Tactile Pressure (g) Δ Treatment ([1]; 3.2 µg/animal ITH, 60 Minutes): -3.7 g and -2.1 g and 4.2 g and -5.5 g and -2.0 g | Inhibition (%) ([1]; 3.2 µg/animal ITH, 60 Minutes): -6% | Tactile Pressure (g) Post-Treatment Average ([1]; 3.2 µg/animal ITH, 120 Minutes): 9.2 g | Tactile Pressure (g) Δ Treatment Average ([1]; 3.2 µg/animal ITH, 120 Minutes, Δ Blank 30.2): -2.0 g | Tactile Pressure (g) Post-Treatment [1, 3]: 6.1 g and 12.4 g and 7.9 g and 10.8 g and 8.6 g | Tactile Pressure (g) Δ Treatment [1, 3]: -5.1 g and -2.4 g and 0.8 g and -1.2 g and -2.1 g | Inhibition (%) ([1]; 3.2 µg/animal ITH, 120 Minutes): -7% | Tactile Pressure (g) Post-Treatment Average ([1]; 10 µg/animal ITH, 15 Minutes): 23.3 g | Tactile Pressure (g) Δ Treatment Average ([1]; 10 µg/animal ITH, 15 Minutes, Δ Blank 27.9): 13.0 g | Tactile Pressure (g) Post-Treatment ([1]; 10 µg/animal ITH, 15 Minutes): >36.8 g and 12.4 g and 17.2 g and 26.7 g and 23.6 g | Tactile Pressure (g) Δ Treatment ([1]; 10 µg/animal ITH, 15 Minutes): 24.7 g and 1.5 g and 11.0 g and 15.7 g and 12.3 g | Inhibition (%) ([1]; 10 µg/animal ITH, 15 Minutes): 47% | Tactile Pressure (g) Post-Treatment Average ([1]; 10 µg/animal ITH, 30 Minutes): 26.4 g | Tactile Pressure (g) Δ Treatment Average ([1]; 10 µg/animal ITH, 30 Minutes, Δ Blank 27.9): 16.1 g | Tactile Pressure (g) Post-Treatment ([1]; 10 µg/animal ITH, 30 Minutes): 42.6 g and 7.0 g and >31.5 g and >35.5 g and 15.6 g | Tactile Pressure (g) Δ Treatment ([1]; 10 µg/animal ITH, 30 Minutes): 30.5 g and -3.9 g and 25.3 g and 24.5 g and 4.3 g | Inhibition (%) ([1]; 10 µg/animal ITH, 30 Minutes): 58% | Tactile Pressure (g) Post-Treatment Average ([1]; 10 µg/animal ITH, 60 Minutes): 20.8 g | Tactile Pressure (g) Δ Treatment Average ([1]; 10 µg/animal ITH, 60 Minutes, Δ Blank 27.9): 10.5 g | Tactile Pressure (g) Post-Treatment ([1]; 10 µg/animal ITH, 60 Minutes): 20.5 g and 15.1 g and 36.5 g and 23.2 g and 8.9 g | Tactile Pressure (g) Δ Treatment ([1]; 10 µg/animal ITH, 60 Minutes): 8.4 g and 4.2 g and 30.3 g and 12.2 g and -2.4 g | Inhibition (%) ([1]; 10 µg/animal ITH, 60 Minutes): 38% | Tactile Pressure (g) Post-Treatment Average ([1]; 10 µg/animal ITH, 120 Minutes): 11.0 g | Tactile Pressure (g) Δ Treatment Average ([1]; 10 µg/animal ITH, 120 Minutes, Δ Blank 27.9): 0.6 g | Tactile Pressure (g) Post-Treatment [1, 4]: 13.5 g and 10.8 g and 11.8 g and 12.3 g and 6.4 g | Tactile Pressure (g) Δ Treatment [1, 4]: 1.4 g and -0.1 g and 5.2 g and 1.3 g and -4.9 g | Inhibition (%) ([1]; 10 µg/animal ITH, 120 Minutes): 2% | peak of analgesic activity, time post-dosing ([1]; 10 µg/animal intrathecal): 30 min | analgesic activity ([1]; 10 µg/animal intrathecal, 30 minutes post-injection): significant analgesic activity | analgesic activity ([1]; 10 µg/animal intrathecal, 120 minutes post-dosing): no longer evident | behavioral changes in treated animals [2]: did not cause behavioral changes | gait after intrathecal injection ([2]; all treated animals): normal gait
